Data set [1] has as its system HL60. Nature of the data set: Mitochondrial potential, DiOC6(3) flow cytometry in HL60. To be noted: HL60 stained with DIOC6(3). The format is cell-based, human. How it is done: HL60 was incubated with 100 nM 3,3′-dihexyloxacarbocyanine iodide (DiOC6(3)) (Cat. D273, Thermo Fisher Scientific). Cells were stained under culture conditions for 15 min, washed with prewarmed PBS, and examined by Guava EasyCyte flow cytometer (Merck-Millipore, USA). The results of flow cytometry were analyzed with Flowing Software 2.5.1 (Turku Bioscience, Finland).

In another data set the test system is S. aureus. Nature of the data set: Switch of S. aureus asymmetric phosphatidylserine location (Annexin V / 7AAD). The format is cell-based, Staphylococcus aureus. The note with it: MIC concentrations, first hour to 6 h. As for the experimental part: Bacterial cultures with an […], as utilized in bacteriostatic experiments (Ptaszyńska et al., 2019 [16, 48]), were plated on Petri dishes. Compounds were added at the MIC concentration to the test sample, while no compound was added to the negative control. After an appropriate incubation period (45 min, […]), samples were collected and promptly washed with PBS. The pellet was then suspended in 100 μL of annexin binding buffer (BioSource International, Camarillo, CA, USA), which included 0.25 μL of 7-AAD (7-aminoactinomycin D, 1 mg/mL, Sigma) and 1 μL of Annexin–FITC (Thermo Fisher, Waltham, MA, USA). Following the addition of 400 μL of annexin binding buffer, the samples were left in the dark for 15 min. Subsequently, the samples were placed on ice and immediately read by the Guava EasyCyte (Merck-Millipore, Burlington, MA, USA). Flow results were analyzed with the free online software https://floreada.io/ (accessed on 30 November 2023; the last update was carried out in June 2023).

For data set [2], the system named is HEK293. To be noted: HEK293, CM-H2DCFDA, compound at 2-fold IC90.
Description: (§7) Cell lines were cultured as mentioned above and seeded in Petri dishes (Falcon, Cary, NC, USA) in the amount of 25 × 10^3 per Φ35 dish. HEK293 cells were allowed to attach overnight. ROS generation potential was tested for selected compounds after 0.25, 0.5, 1, 3, 6, and 24 h of incubation. The CM-H2DCFDA molecular probe (Thermo Fisher Scientific, Waltham, MA, USA) at a final concentration of 1 µM was added 15 min before the analysis. After staining, HEK293 cells were trypsinized, harvested, and suspended in fresh media. The 7AAD (Cat. A9400, Sigma Aldrich) was added just before analysis. Analyses were carried out with a Guava EasyCyte flow cytometer (Merck-Millipore, USA). Flow cytometry data were processed with Flowing Software 2.5.1 (Turku Bioscience, Turku, Finland).
Data set [3] concerns HL60. The note with it: HL60, CM-H2DCFDA, compound at 2-fold IC90.
Description: as §7
A further data set deals with BT20. Nature of the data set: Cell proliferation (EC50, selectivity index) on BT20. In kind it is cell-based, human. The note with it: normalized to EC50. How it is done: (§1) To evaluate their effect on leukemia, cancer, and non-cancer cells, the Malignancy Selectivity Index was calculated as MSI = EC50 (non-cancerous)/EC50 (leukemic or cancerous) or EC50 (leukemic or cancerous)/EC50 (leukemic or cancerous).
(§2) Supplementary Table S1. […] 4. […]
(§3) of incubation; The initial cellular density for HL60 was 5,000 cells, and for HEK293, it was 1,500 cells […]
(§4) Supplementary Table S2. […] The conversion from IC50 to EC50 was performed following the method outlined in [62]; For IC50 values, please refer to Supplementary […]
(§5) For MIC and IC50 data, please also refer to Ptaszyńska et al., 2019. Abbreviations: S. e. - Staphylococcus epidermidis ATCC 12228; B. s. - Bacillus subtilis ATCC 6633; S. a. - Staphylococcus aureus ATCC 25923; P. a - Pseudomonas aeruginosa ATCC 27853; B. c - Bacillus cereus PCM 2003; C. k. - Candida krusei DSM 6128; C. p. - Candida parapsilosis DSM 5784; C. a. - Candida albicans ATCC 10231; C. g. - Candida glabrata DSM 11226; C. t. - Candida […]

Data set [4] relates to HEK293. Nature of the data set: MTT drug sensitivity assay on HEK293. In kind it is cell-based, human. To be noted: normalized to EC50. How it is done: (§6) As mentioned in [61], we followed detailed procedures, including the composition of media and growth conditions, for the application of conjugate 4 on both HL60 and HEK293 in the MTT drug sensitivity assay. The initial cellular density for cultures seeded in a 96-well plate was 5000 cells/well for HL60 and 1500 cells/well for HEK293.
as §2, §3, §4, §5

Data set [5] deals with HL60. Nature of the data set: MTT drug sensitivity assay on HL60. In kind it is cell-based, human. To be noted: normalized to EC50. How it is done: as §6, §2, §3, §4, §5
The test system of a further data set is Candida krusei DSM 6128. To be noted: C. krusei, relative to IC50 of HL60.
The subject of the next data set is A549. Kind of data set: Cell proliferation (EC50, selectivity index) on A549. The format is cell-based, human. To be noted: normalized to EC50. As for the experimental part: as §1, §2, §3, §4, §5

3 compounds from paper PMC10856415, “Lactoferricin B Combined with Antibiotics Exhibits Leukemic Selectivity and Antimicrobial Activity” (Molecules, 2024) can be followed below.

Square brackets hold non-standard residues; d marks the D form. Ends that are not written are not given here. Peptide text beside a SMILES is read from it. * marks the point of attachment. X1 = N[C@@H](CS*)C(=O)N1CCN(c2cc3c(cc2F)c(=O)c(C(=O)O)cn3C2CC2)CC1; X2 = O=C(Cn1cc(CC(O)(Cn2cncn2)c2ccc(F)cc2F)nn1)*; Nle = CCCC[C@H](N)C(=O)O

`CCCC[C@H](NC(=O)[C@H](CCCNC(=N)N)NC(=O)[C@H](Cc1c[nH]c2ccccc12)NC(=O)[C@H](CCC(N)=O)NC(=O)[C@H](Cc1c[nH]c2ccccc12)NC(=O)[C@H](CCCNC(=N)N)NC(=O)[C@H](CCCNC(=N)N)NC(=O)[C@H](CSSC[C@H](N)C(=O)N1CCN(c2cc3c(cc2F)c(=O)c(C(=O)O)cn3C2CC2)CC1)NC(=O)[C@H](CCCCN)NC(=O)[C@@H](N)Cc1ccccc1)C(N)=O` [conjugate 3] (H-FKC(X1)RRWQWR[Nle]-NH2; N-terminus assumed): the “Impact on mitochondrial potential” value in the data set on HL60 [1] was “minimal impact”. Besides, the “Reduction in number of events (7AAD vs. Annexin V) compared to LfcinB” value in the data set with S. aureus is reported as “more pronounced”.
With `CSCC[C@H](NC(=O)[C@H](CCCNC(=N)N)NC(=O)[C@H](Cc1c[nH]c2ccccc12)NC(=O)[C@H](CCC(N)=O)NC(=O)[C@H](Cc1c[nH]c2ccccc12)NC(=O)[C@H](CCCNC(=N)N)NC(=O)[C@H](CCCNC(=N)N)NC(=O)[C@H](CS)NC(=O)[C@H](CCCCN)NC(=O)[C@H](Cc1ccccc1)NC(=O)Cn1cc(CC(O)(Cn2cncn2)c2ccc(F)cc2F)nn1)C(N)=O` (stereo partly shown) [conjugate 4] (X2-FKCRRWQWRM-NH2; N-terminus assumed), the “Levels of cellular ROS” value in the data set with HEK293 [2] and with HL60 [3] was “negligible” each time.
With “conjugate 1: covalently bonded LfcinB and LVX (FKCRRWQWRMKKLGAPSITCVRRAF; ends and bridges not checked; also: covalently bonded to levofloxacin, site not given here; UniProt P24627 36-60, looked up)”, in the data set on BT20 (A549 vs BT20), the “Malignancy Selectivity Index, BT20 section, A549 column” value was 2.9. Besides, in the data set with BT20 (HEK293 vs BT20), the “Malignancy Selectivity Index, BT20 section, HEK293 column” value came out at 13.1. Besides, in the data set with BT20 (HL-60 vs BT20), the “Malignancy Selectivity Index, BT20 section, HL-60 column” value came to 0.3. The “Malignancy Selectivity Index, HEK293 section, A549 column” value in the data set on HEK293 [4] (A549 vs HEK293) came out at 0.2. In the data set with HEK293 [4] (BT20 vs HEK293), the “Malignancy Selectivity Index, HEK293 section, BT20 column” value is given as 0.1. Also, the “Malignancy Selectivity Index, HL60 section, A549 column” value in the data set on HL60 [5] (A549 vs HL60) was determined as 8.9. Besides, the “Malignancy Selectivity Index, HL60 section, BT20 column” value in the data set with HL60 [5] (BT20 vs HL60) came to 3.0. The “Malignancy Selectivity Index, HL60 section, HEK293 column” value in the data set on HL60 [5] (HEK293 vs HL60) was found to be 39.4. In addition, in the data set with Candida krusei DSM 6128, the “FSI (Fungistatic Selectivity Index)” value stood at 2.9. In the data set on A549 (BT20 vs A549), the “Malignancy Selectivity Index, A549 section, BT20 column” value is listed as 0.3. The “Malignancy Selectivity Index, A549 section, HEK293 column” value in the data set on A549 (HEK293 vs A549) was 4.4. In the data set with A549 (HL-60 vs A549), the “Malignancy Selectivity Index, A549 section, HL-60 column” value is recorded as 0.1.
